Experimental findings from patent publication US8680065B2, “Oligonucleotides of human endogenous retrovirus 9 (ERV-9) long terminal repeat (LTR) and methods of use” (The United States of America, as represented by the …, priority 2008, dated 2014) are described below.

The subject of one data set is HT1080 cells. Nature of the data set: Cancer cell proliferation, oligonucleotide in combination with VP16, 48 hours. The class given is cell-based, human. Particulars: oligonucleotide 15 μg/ml with VP16 30 ng/ml and 50 ng/ml, P<0.05. How it is done: FIG. 7 is a graph showing proliferation of HT1080 cells treated with ERV-9 U3 sense or antisense oligonucleotide (SEQ ID NOs: 1 and 2, respectively), in combination with VP16 (also known as etoposide). Cells (4×10^4) were treated with oligonucleotide (15 μg/ml) alone or in combination with the concentrations of VP16 shown for 48 hours. Cell proliferation levels were expressed relative to the percentage of GFP oligonucleotide control in the absence of VP16.
(§1) To test the effect of treating cancer cells with the combination of ERV-9 U3 oligonucleotide and VP16, six different cancer cell lines were analyzed: HT1080, (FIG. 7); MDA-231 (FIG. 8); K562 (FIG. 9); LNcaP (FIG. 10); HepG2 (FIG. 11); and MCF-7 (FIG. 12). Cells (4×10^4) were treated with 15 μg/ml ERV-9 U3 sense (SEQ ID NO: 1) or antisense (SEQ ID NO: 2) oligonucleotide alone or in combination with VP16 at a concentration of 30 ng/ml or 50 ng/ml. After 48 hours, cell proliferation was assessed by direct cell counting. Cell proliferation levels were expressed relative to GFP oligonucleotide control in the absence of VP16.

For data set [1], the system named is MCF-7 cells (a breast cancer cell line). As to the kind of experiment: Cancer cell proliferation, oligonucleotide in LIPOFECTAMINE, 48 hours, direct cell counting. The data set is classed as cell-based, human. Particulars: P<0.05; for cell proliferation compared with G3139, GRN163 and MDM2 antisense oligonucleotides: oligonucleotide 30 μg/ml; for cell proliferation relative to GFP oligonucleotide: oligonucleotide 10, 20 or 30 μg/ml. On the procedure:
FIG. 6 is a graph showing the effect of sense and antisense ERV-9 U3 oligonucleotides (SEQ ID NOs: 1 and 2, respectively) on proliferation of MCF-7 cells (a breast cancer cell line). Cells (4×10^4) were treated with ERV-9 U3 sense or antisense oligonucleotide formulated in LIPOFECTAMINE™ at the concentrations shown for 48 hours.
To test the effect of the sense and antisense ERV-9 U3 oligonucleotides on proliferation of cancer cells, six different cancer cell lines were selected for transfection studies: HT1080, fibrosarcoma cells (FIG. 1); MDA-231, breast cancer cells (FIG. 2); K562, myelogenous leukemia cells (FIG. 3); LNcaP, prostate cancer cells (FIG. 4); HepG2, hepatocellular carcinoma cells (FIG. 5); and MCF-7, breast cancer cells (FIG. 6). Cells (4×10^4) were treated with ERV-9 U3 sense or antisense oligonucleotide formulated in LIPOFECTAMINE™ at an oligonucleotide concentration of 10, 20 or 30 μg/ml for 48 hours. Green fluorescent protein (GFP) sense oligonucleotide ([…]; SEQ ID NO: 3) was used as a control to measure the non-specific cytotoxicity of phosphorothioate-based oligonucleotides. Antisense oligonucleotides specific for Bcl-2 (G3139; TCTCCCAGCGTGCGCCAT; SEQ ID NO: 4), telomerase (GRN163; TAGGGTTAGACAA; SEQ ID NO: 5), and MDM2 ([…]; SEQ ID NO: 6) were also evaluated. […] After 48 hours of oligonucleotide treatment, cell proliferation was assessed by direct cell counting. Cell proliferation levels were expressed relative to cells transfected with 10 μg/ml GFP control oligonucleotide.

A further data set deals with MDA-231 cells. As to the kind of experiment: Cancer cell proliferation, oligonucleotide in combination with VP16, 48 hours. The class given is cell-based, human. Particulars: oligonucleotide 15 μg/ml with VP16 30 ng/ml and 50 ng/ml, P<0.05.
A further data set has as its system human primary monocytes. As to the kind of experiment: Proliferation of normal human primary cells, 48 hours. The class given is cell-based. Particulars: 20 μg/ml, P>0.05. On the procedure:
FIG. 15 is a graph showing the effect of ERV-9 U3 sense and antisense oligonucleotides (SEQ ID NOs: 1 and 2, respectively) on human primary monocytes. Cells (4×10^4) were transfected with ERV-9 U3 sense or antisense oligonucleotide formulated in LIPOFECTAMINE™ at a concentration of 20 μg/ml for 48 hours.
To determine whether the inhibitory effect of ERV-9 U3 oligonucleotides is specific to cancer cells, human primary keratinocytes (FIG. 13), lymphocytes (FIG. 14), or monocytes (FIG. 15) were treated with ERV-9 U3 sense or antisense oligonucleotide and cell proliferation was evaluated. Cells (4×10^4) were transfected with ERV-9 U3 sense or antisense oligonucleotide (SEQ ID NOs: 1 and 2, respectively) formulated in LIPOFECTAMINE™ at a concentration of 20 μg/ml. GFP oligonucleotide was used as non-specific phosphorothioate oligonucleotide control. After 48 hours, cell proliferation was assessed by direct cell counting. Cell proliferation levels were expressed relative to GFP control.

In another data set the test system is HepG2 cells. As to the kind of experiment: Cancer cell proliferation, oligonucleotide in combination with VP16, 48 hours. The class given is cell-based, human. Particulars: oligonucleotide 15 μg/ml with VP16 30 ng/ml and 50 ng/ml, P<0.05. On the procedure:
FIG. 11 is a graph showing proliferation of HepG2 cells treated with ERV-9 U3 sense or antisense oligonucleotide (SEQ ID NOs: 1 and 2, respectively), in combination with VP16. Cells (4×10^4) were treated with oligonucleotide (15 μg/ml) alone or in combination with the concentrations of VP16 shown for 48 hours.
as §1

Data set [2] has as its system LNcaP cells (a prostate cancer cell line). As to the kind of experiment: Cancer cell proliferation, oligonucleotide in LIPOFECTAMINE, 48 hours, direct cell counting. The class given is cell-based, human. Particulars: oligonucleotide 10, 20 or 30 μg/ml.
In the next data set the test system is K562 cells. As to the kind of experiment: Cancer cell proliferation, oligonucleotide in combination with VP16, 48 hours. The data set is classed as cell-based, human. As to conditions: oligonucleotide 15 μg/ml with VP16 30 ng/ml and 50 ng/ml, P<0.05. How it is done: FIG. 9 is a graph showing proliferation of K562 cells treated with ERV-9 U3 sense or antisense oligonucleotide (SEQ ID NOs: 1 and 2, respectively), in combination with VP16. Cells (4×10^4) were treated with oligonucleotide (15 μg/ml) alone or in combination with the concentrations of VP16 shown for 48 hours.
as §1

Take “U3S: ERV-9 LTR U3 sense oligonucleotide CTCAAGGTTTGTAAACACACCAATCAG, phosphorothioate internucleoside linkages at each position (all phosphorothioate, sugars by position and methylation of C not given here) [Oligo U3S]”: the “cell proliferation relative to GFP oligonucleotide control” value in the data set on HT1080 cells is “inhibited cell proliferation better than GFP control and G3139, GRN163 and MDM2 antisense oligonucleotides”; with MDA-231 cells, “inhibited cell proliferation better than GFP oligonucleotide”; in the data set with HepG2 cells, “inhibited cell proliferation better than GFP control and G3139, GRN163 and MDM2 antisense oligonucleotides”; in the data set with K562 cells, “inhibited cell proliferation better than GFP control and G3139, GRN163 and MDM2 antisense oligonucleotides”. In data set [1], the “cell proliferation compared with G3139, GRN163 and MDM2 antisense oligonucleotides” value is “inhibited proliferation better than G3139, GRN163 and MDM2 antisense oligonucleotides”. The “cell proliferation relative to GFP oligonucleotide” value in data set [1] was “inhibited cell proliferation better than GFP control oligonucleotide at all three concentrations”; in data set [2], “inhibited cell proliferation better than GFP control oligonucleotide at all three oligonucleotide concentrations”. The “cell proliferation relative to control GFP oligonucleotide” value with human primary monocytes was “did not inhibit cell proliferation relative to control GFP oligonucleotide”.
Regarding “U3AS: ERV-9 LTR U3 antisense oligonucleotide CTGATTGGTGTGTTTACAAACCTTGAG, phosphorothioate internucleoside linkages at each position (all phosphorothioate, sugars by position and methylation of C not given here) [Oligo U3AS]”, the “cell proliferation relative to GFP oligonucleotide control” value is “inhibited cell proliferation better than GFP control and G3139, GRN163 and MDM2 antisense oligonucleotides” in the data set with HT1080 cells; “inhibited cell proliferation better than GFP control and G3139, GRN163 and MDM2 antisense oligonucleotides” in the data set on MDA-231 cells; “inhibited cell proliferation better than GFP control and G3139, GRN163 and MDM2 antisense oligonucleotides” with HepG2 cells; “inhibited cell proliferation better than GFP control and G3139, GRN163 and MDM2 antisense oligonucleotides” with K562 cells. Moreover, in data set [1], the “cell proliferation compared with G3139, GRN163 and MDM2 antisense oligonucleotides” value was “inhibited proliferation better than G3139, GRN163 and MDM2 antisense oligonucleotides”. The “cell proliferation relative to GFP oligonucleotide” value in data set [1] is listed as “inhibited cell proliferation better than GFP control oligonucleotide at all three concentrations”; in data set [2] it was “inhibited cell proliferation better than GFP control oligonucleotide at all three oligonucleotide concentrations”. Besides, the “cell proliferation relative to control GFP oligonucleotide” value in the data set with human primary monocytes is listed as “did not inhibit cell proliferation relative to control GFP oligonucleotide”.
